# Structures can show the parent of a compound that is named as a salt.
# Columns and labels:
# Experiment in all cases: Cell viability drug screen, 12-point dose-response AUC
# Format in all cases: cell-based, human
# FU97 = test system: FU97; design: Average Area Under the Viability Curve (AUC), AUC norm value: scale not given here; conditions: FU97 cells; 72 hours
# Summary of the method: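 Trapezoidal AUC of a 12-point, DMSO-normalized dose-response curve. Luminescent viability was measured after 72 h of exposure at 37° C to half-log serial dilutions (0.5% DMSO control), dosed 24 h after plating FU97 cells at 5×10^3 per well.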
# YCC3 = YCC3 cells; 72 hours
# Summary of the method: (§1)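 Twelve half-log concentrations per compound were tested on gastric cancer cells with an EMT phenotype (5×10^3/well, dosed 24 h post-seeding). Viability after 72 h was quantified via luminescence relative to 0.5% DMSO, and repeats were averaged.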
# NCC19 = NCC19 cells; 72 hours
# Summary of the method: as §1
# SK4 = SK4 cells (SEM subtype); 72 hours
# Summary of the method: as §1
# SNU1967 = SNU1967 cells; 72 hours
# Summary of the method: as §1
# NCC59 = NCC59 cells; 72 hours
# Summary of the method: as §1
# SNU216 = SNU216 cells (non-SEM subtype); 72 hours
# Summary of the method: (§2)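 Gastric cancer lines seeded 5×10^3 cells/well, dosed after 24 h with half-log 12-point compound dilutions (DMSO 0.5% control), then 72 h at 37 °C. Viability by luminescence, normalized to DMSO; AUC by trapezoidal method, averaged over repeats.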
# SNU620 = SNU620 cells; 72 hours
# Summary of the method: as §1
# MKN28 = MKN28 cells; 72 hours
# Summary of the method: as §1
# MKN45 = MKN45 cells (non-SEM subtype); 72 hours
# Summary of the method: as §2
# NCC20 = NCC20 cells; 72 hours
# Summary of the method: as §1
# AGS = AGS cells (non-SEM subtype); 72 hours
# Summary of the method: as §2
# SNU668 = SNU668 cells (SEM subtype); 72 hours
# Summary of the method: as §1
# MKN1 = MKN1 cells; 72 hours
# Summary of the method: as §1
# YCC11 = YCC11 cells (SEM subtype); 72 hours
# Summary of the method: as §1
# SNU1750 = SNU1750 cells (SEM subtype); 72 hours
# Summary of the method: as §1
# KATO3 = KATO3 cells; 72 hours
# Summary of the method: as §1
# Hs746T = Hs746T cells (SEM subtype); 72 hours
# Summary of the method: as §1
# NCI_N87 = NCI_N87 cells; 72 hours
# Summary of the method: as §1
# SNU1 = SNU1 cells; 72 hours
# Summary of the method: as §1
# SNU16 = SNU16 cells; 72 hours
# Summary of the method: as §1
# NCC24 = NCC24 cells; 72 hours
# Summary of the method: as §1
# MKN74 = MKN74 cells; 72 hours
# Summary of the method: as §2
# SNU601 = SNU601 cells; 72 hours
# Summary of the method: as §1
# YCC2 = YCC2 cells; 72 hours
# Summary of the method: as §1
# SNU638 = SNU638 cells; 72 hours
# Summary of the method: as §1
# OCUM1 = OCUM1 cells; 72 hours
# Summary of the method: as §1
# SNU719 = SNU719 cells; 72 hours
# Summary of the method: as §2
# SNU484 = SNU484 cells (SEM subtype); 72 hours
# Summary of the method: as §1
Compound,"Average Area Under the Viability Curve (AUC), AUC norm value (FU97)","Average Area Under the Viability Curve (AUC), AUC norm value (YCC3)","Average Area Under the Viability Curve (AUC), AUC norm value (NCC19)","Average Area Under the Viability Curve (AUC), AUC norm value (SK4)","Average Area Under the Viability Curve (AUC), AUC norm value (SNU1967)","Average Area Under the Viability Curve (AUC), AUC norm value (NCC59)","Average Area Under the Viability Curve (AUC), AUC norm value (SNU216)","Average Area Under the Viability Curve (AUC), AUC norm value (SNU620)","Average Area Under the Viability Curve (AUC), AUC norm value (MKN28)","Average Area Under the Viability Curve (AUC), AUC norm value (MKN45)","Average Area Under the Viability Curve (AUC), AUC norm value (NCC20)","Average Area Under the Viability Curve (AUC), AUC norm value (AGS)","Average Area Under the Viability Curve (AUC), AUC norm value (SNU668)","Average Area Under the Viability Curve (AUC), AUC norm value (MKN1)","Average Area Under the Viability Curve (AUC), AUC norm value (YCC11)","Average Area Under the Viability Curve (AUC), AUC norm value (SNU1750)","Average Area Under the Viability Curve (AUC), AUC norm value (KATO3)","Average Area Under the Viability Curve (AUC), AUC norm value (Hs746T)","Average Area Under the Viability Curve (AUC), AUC norm value (NCI_N87)","Average Area Under the Viability Curve (AUC), AUC norm value (SNU1)",other results
CCCCCCCCCCCCCCCC[n+]1ccccc1 [Cetylpyridinium Chloride],−2.039,0.3901,1.205,−1.312,−0.5001,1.497,−0.1483,0.09525,0.4876,0,−0.2318,−0.1044,−0.02952,0.9994,−1.129,−0.3613,1.072,0.2943,1.075,0.5171,"Average Area Under the Viability Curve (AUC), AUC norm value (SNU16): −0.1534; Average Area Under the Viability Curve (AUC), AUC norm value (NCC24): 0.06564; Average Area Under the Viability Curve (AUC), AUC norm value (MKN74): −0.4176; Average Area Under the Viability Curve (AUC), AUC norm value (SNU601): 2.328; Average Area Under the Viability Curve (AUC), AUC norm value (YCC2): 0.1421; Average Area Under the Viability Curve (AUC), AUC norm value (SNU638): −0.3142; Average Area Under the Viability Curve (AUC), AUC norm value (OCUM1): −0.1441; Average Area Under the Viability Curve (AUC), AUC norm value (SNU719): 1.718; Average Area Under the Viability Curve (AUC), AUC norm value (SNU484): −0.7401"
"CO[C@@H](C(=O)N1Cc2n[nH]c(NC(=O)c3ccc(N4CCN(C)CC4)cc3)c2C1)c1ccccc1 [Danusertib (PHA-739358), Danusertib]",−2.488,0.7949,1.885,−0.6677,0.03541,1.632,0,−2.616,1.245,2.103,−4.082,−1.034,1.049,−0.8271,−1.357,−2.3091,−0.3046,1.565,2.122,−2.274,"Average Area Under the Viability Curve (AUC), AUC norm value (SNU16): −3.76; Average Area Under the Viability Curve (AUC), AUC norm value (NCC24): 0.9879; Average Area Under the Viability Curve (AUC), AUC norm value (MKN74): 0.1321; Average Area Under the Viability Curve (AUC), AUC norm value (SNU601): 2.877; Average Area Under the Viability Curve (AUC), AUC norm value (YCC2): −0.9901; Average Area Under the Viability Curve (AUC), AUC norm value (SNU638): −0.2145; Average Area Under the Viability Curve (AUC), AUC norm value (OCUM1): 0.8742; Average Area Under the Viability Curve (AUC), AUC norm value (SNU719): 3.935; Average Area Under the Viability Curve (AUC), AUC norm value (SNU484): −1.537"
"COc1cccc2c1C(=O)c1c(O)c3c(c(O)c1C2=O)C[C@@](O)(C(C)=O)C[C@@H]3O[C@H]1C[C@H](N)[C@H](O)[C@H](C)O1 [Daunorubicin HCl (Daunomycin HCl), Daunorubicin HCl]",0.3965,2.699,0.9357,0,−1.481,−0.5161,0.4507,−1.239,2.146,2.949,−0.7736,−1.2278,−0.9142,−0.2877,−1.742,−0.7795,6.288,0.1484,4.5372,−0.7605,"Average Area Under the Viability Curve (AUC), AUC norm value (SNU16): −1.065; Average Area Under the Viability Curve (AUC), AUC norm value (NCC24): −0.8801; Average Area Under the Viability Curve (AUC), AUC norm value (MKN74): 1.215; Average Area Under the Viability Curve (AUC), AUC norm value (SNU601): 1.207; Average Area Under the Viability Curve (AUC), AUC norm value (YCC2): 1.127; Average Area Under the Viability Curve (AUC), AUC norm value (SNU638): −1.229; Average Area Under the Viability Curve (AUC), AUC norm value (OCUM1): 0.7066; Average Area Under the Viability Curve (AUC), AUC norm value (SNU719): 3.416; Average Area Under the Viability Curve (AUC), AUC norm value (SNU484): −1.299"
"COc1cccc2c1C(=O)c1c(O)c3c(c(O)c1C2=O)C[C@@](O)(C(=O)CO)C[C@@H]3O[C@H]1C[C@H](N)[C@H](O)[C@H](C)O1 [Doxorubicin (Adriamycin), Doxorubicin]",−1.237,2.8776,2.867,0.213,−0.8787,1.231,0.7466,−0.2009,2.98,2.505,−0.4879,−1.081,−0.3909,−0.2016,−1.877,−0.9576,7.9338,−0.08449,6.891,0,"Average Area Under the Viability Curve (AUC), AUC norm value (SNU16): −0.0398; Average Area Under the Viability Curve (AUC), AUC norm value (NCC24): −0.6126; Average Area Under the Viability Curve (AUC), AUC norm value (MKN74): 1.522; Average Area Under the Viability Curve (AUC), AUC norm value (SNU601): 4.481; Average Area Under the Viability Curve (AUC), AUC norm value (YCC2): 1.4121; Average Area Under the Viability Curve (AUC), AUC norm value (SNU638): −0.3342; Average Area Under the Viability Curve (AUC), AUC norm value (OCUM1): 0.6788; Average Area Under the Viability Curve (AUC), AUC norm value (SNU719): 4.66; Average Area Under the Viability Curve (AUC), AUC norm value (SNU484): −0.8418"

# — patent US20250129430A1, “HIGH ATP-AFFINITY PROTEIN AS THERAPEUTIC TARGET FOR INTRACTABLE CANCER MOLECULAR SUBTYPES AND INHIBITOR THEREOF” (VeraVerse Co., Ltd., priority 2021, published 2025)
